What all share (assay): relative viability (nuclei count vs DMSO), 5 days (fraction); higher = more cells survive
Compound in the experiment “OSI-027 + Pictilisib”: COc1cccc2cc(-c3nc([C@H]4CC[C@H](C(=O)O)CC4)n4ncnc(N)c34)[nH]c12 [OSI-027] + CS(=O)(=O)N1CCN(Cc2cc3nc(-c4cccc5[nH]ncc45)nc(N4CCOCC4)c3s2)CC1 [Pictilisib] (partner 1 µM)
Summed up:
(§1)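 Lung cancer cell lines, seeded in 1536-well plates, were treated the following day by pin tool with a single drug or with five library-drug doses (not always all listed) in √10 steps on top of a fixed anchor-drug dose. Cells were fixed and nuclei stained in one step after 5 days, and nuclei were counted. Relative viability is the nuclei count for treated wells divided by that for vehicle wells, reported as medians of duplicate plates.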

Compound in the experiment “Vemurafenib + Navitoclax”: CCCS(=O)(=O)Nc1ccc(F)c(C(=O)c2c[nH]c3ncc(-c4ccc(Cl)cc4)cc23)c1F [Vemurafenib] + CC1(C)CCC(c2ccc(Cl)cc2)=C(CN2CCN(c3ccc(C(=O)NS(=O)(=O)c4ccc(N[C@H](CCN5CCOCC5)CSc5ccccc5)c(S(=O)(=O)C(F)(F)F)c4)cc3)CC2)C1 [Navitoclax] (partner 0.5 µM)
Summed up:
as §1

Compound in the experiment “Vemurafenib + Pictilisib”: CCCS(=O)(=O)Nc1ccc(F)c(C(=O)c2c[nH]c3ncc(-c4ccc(Cl)cc4)cc23)c1F [Vemurafenib] + CS(=O)(=O)N1CCN(Cc2cc3nc(-c4cccc5[nH]ncc45)nc(N4CCOCC4)c3s2)CC1 [Pictilisib] (partner 1 µM)
Summed up: as §1

Compound in the experiment “OSI-027 + Linsitinib”: COc1cccc2cc(-c3nc([C@H]4CC[C@H](C(=O)O)CC4)n4ncnc(N)c34)[nH]c12 [OSI-027] + C[C@]1(O)C[C@@H](c2nc(-c3ccc4ccc(-c5ccccc5)nc4c3)c3c(N)nccn32)C1 [Linsitinib] (partner 1 µM)
In a few lines: as §1

This passage reports relative viability results from the supplement of paper PMC10307832.

For the cell line UMC-11, the relative viability in the experiment with OSI-027 + Pictilisib (first compound 0.01 µM) is 0.739; with OSI-027 + Pictilisib (first compound 0.03162 µM), 1.03; with OSI-027 + Pictilisib (first compound 0.1 µM), 0.664; with OSI-027 + Pictilisib (first compound 0.3162 µM) it was 0.636; with OSI-027 + Pictilisib (first compound 1 µM), 0.412; with Vemurafenib + Navitoclax (first compound 0.03162 µM) it was 0.336. Besides, the relative viability in the experiment with Vemurafenib + Navitoclax (first compound 0.1 µM) was 0.327; with Vemurafenib + Navitoclax (first compound 0.3162 µM) it was 0.374; with Vemurafenib + Navitoclax (first compound 1 µM) it was 0.319; in the experiment with Vemurafenib + Pictilisib (first compound 0.03162 µM), 0.867; with Vemurafenib + Pictilisib (first compound 0.1 µM) it was 0.801; with Vemurafenib + Pictilisib (first compound 0.3162 µM) it was 0.714. The relative viability with Vemurafenib + Pictilisib (first compound 1 µM) was 0.348; with OSI-027 + Linsitinib (first compound 0.01 µM), 1; in the experiment with OSI-027 + Linsitinib (first compound 0.03162 µM) it was 1.04; in the experiment with OSI-027 + Linsitinib (first compound 0.1 µM) it was 0.944; with OSI-027 + Linsitinib (first compound 0.3162 µM), 0.676; with OSI-027 + Linsitinib (first compound 1 µM), 0.468.
